The values below come from ChEMBL document CHEMBL1152699, “Taste-guided identification of high potency TRPA1 agonists from Perilla frutescens” (Bioorg Med Chem, 2009).

Each structure is given as a SMILES string. Activity calls are given as the source filed them. The calls are words filed in the database; no cut-off is given here.

Holding throughout (type): functional, cell-based
Assay [1] concerns the target Transient receptor potential cation channel subfamily M member 8 (Rattus norvegicus) (UniProt Q8R455). The experiment in a line: Antagonist activity at rat recombinant TRPM8 receptor expressed in HEK293 cells assessed as inhibition of icilin-induced increase in intracellular calcium concentration at 200 uM preincubated for 5 mins before icilin treatment by fluorimetric test. (Calcium flux is commonly read through the fluorescence of an indicator in the cells.)

The target in assay [2] is Transient receptor potential cation channel subfamily A member 1 (Rattus norvegicus) (UniProt Q6RI86). The experiment in a line: Agonist activity at rat recombinant TRPA1 receptor expressed in HEK293 cells assessed as increase in intracellular calcium concentration by fluorimetric test in presence of TRP channel blocker ruthenium red.
In assay [3] the target is Transient receptor potential cation channel subfamily M member 8 (Rattus norvegicus) (UniProt Q8R455). Kind of assay: Antagonist activity at rat recombinant TRPM8 receptor expressed in HEK293 cells assessed as inhibition of icilin-induced increase in intracellular calcium concentration at 200 uM preincubated […] before icilin treatment by fluorimetric test.
The target in assay [4] is Transient receptor potential cation channel subfamily A member 1 (Rattus norvegicus, UniProt Q6RI86). The experiment in a line: Agonist activity at rat recombinant TRPA1 receptor expressed in HEK293 cells assessed as increase in intracellular calcium concentration by fluorimetric test.
The target in assay [5] is Transient receptor potential cation channel subfamily A member 1 (Rattus norvegicus) (UniProt Q6RI86). The experiment in a line: Agonist activity at rat recombinant TRPA1 receptor expressed in HEK293 cells assessed as increase in intracellular calcium concentration by fluorimetric test relative to 100 uM allylisothiocyanate.
Assay [6] addresses Transient receptor potential cation channel subfamily M member 8 (Rattus norvegicus) (UniProt Q8R455). Kind of assay: (§1) Agonist activity at rat recombinant TRPM8 receptor expressed in HEK293 cells assessed as increase in intracellular calcium concentration by fluorimetric test.
The target in assay [7] is Transient receptor potential cation channel subfamily M member 8 (Rattus norvegicus, UniProt Q8R455). Described as §1.
The target in assay [8] is Transient receptor potential cation channel subfamily A member 1 (Rattus norvegicus) (UniProt Q6RI86). Kind of assay: Antagonist activity at rat recombinant TRPA1 receptor expressed in HEK293 cells assessed as inhibition of allylisothiocyanate-induced increase in intracellular calcium concentration preincubated for 5 mins by fluorimetric test.

Sequence of Transient receptor potential cation channel subfamily M member 8 (Rattus norvegicus) (Q8R455 whole entry, looked up): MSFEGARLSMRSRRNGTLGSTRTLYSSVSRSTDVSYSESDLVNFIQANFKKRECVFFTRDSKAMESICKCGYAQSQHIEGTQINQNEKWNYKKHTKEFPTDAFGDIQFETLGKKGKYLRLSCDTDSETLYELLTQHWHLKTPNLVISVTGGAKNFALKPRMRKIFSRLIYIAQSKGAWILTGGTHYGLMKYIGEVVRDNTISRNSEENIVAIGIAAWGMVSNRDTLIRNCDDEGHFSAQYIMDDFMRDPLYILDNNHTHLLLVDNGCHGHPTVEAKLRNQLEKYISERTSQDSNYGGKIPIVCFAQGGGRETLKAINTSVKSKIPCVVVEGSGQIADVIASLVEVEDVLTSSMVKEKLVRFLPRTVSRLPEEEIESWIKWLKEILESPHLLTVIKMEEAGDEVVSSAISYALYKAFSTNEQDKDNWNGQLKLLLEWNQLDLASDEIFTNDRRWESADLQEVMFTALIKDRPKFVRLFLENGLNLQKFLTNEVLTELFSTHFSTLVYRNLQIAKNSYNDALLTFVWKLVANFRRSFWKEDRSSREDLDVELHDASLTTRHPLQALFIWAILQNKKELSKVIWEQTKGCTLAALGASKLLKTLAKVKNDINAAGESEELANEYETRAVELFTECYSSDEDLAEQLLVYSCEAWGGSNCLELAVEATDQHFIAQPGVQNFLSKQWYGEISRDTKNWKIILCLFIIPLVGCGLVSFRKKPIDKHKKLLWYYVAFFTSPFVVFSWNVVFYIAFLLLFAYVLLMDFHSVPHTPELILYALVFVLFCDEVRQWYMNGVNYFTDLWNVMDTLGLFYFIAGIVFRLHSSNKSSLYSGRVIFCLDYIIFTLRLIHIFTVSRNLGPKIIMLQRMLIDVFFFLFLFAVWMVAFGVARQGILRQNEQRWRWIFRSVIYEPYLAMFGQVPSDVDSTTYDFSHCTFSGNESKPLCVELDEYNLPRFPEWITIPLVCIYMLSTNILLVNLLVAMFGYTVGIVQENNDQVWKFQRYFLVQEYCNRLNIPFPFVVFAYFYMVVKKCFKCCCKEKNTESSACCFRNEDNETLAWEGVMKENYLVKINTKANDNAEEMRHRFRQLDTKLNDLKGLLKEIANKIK
Sequence of Transient receptor potential cation channel subfamily A member 1 (Rattus norvegicus) (Q6RI86 whole entry): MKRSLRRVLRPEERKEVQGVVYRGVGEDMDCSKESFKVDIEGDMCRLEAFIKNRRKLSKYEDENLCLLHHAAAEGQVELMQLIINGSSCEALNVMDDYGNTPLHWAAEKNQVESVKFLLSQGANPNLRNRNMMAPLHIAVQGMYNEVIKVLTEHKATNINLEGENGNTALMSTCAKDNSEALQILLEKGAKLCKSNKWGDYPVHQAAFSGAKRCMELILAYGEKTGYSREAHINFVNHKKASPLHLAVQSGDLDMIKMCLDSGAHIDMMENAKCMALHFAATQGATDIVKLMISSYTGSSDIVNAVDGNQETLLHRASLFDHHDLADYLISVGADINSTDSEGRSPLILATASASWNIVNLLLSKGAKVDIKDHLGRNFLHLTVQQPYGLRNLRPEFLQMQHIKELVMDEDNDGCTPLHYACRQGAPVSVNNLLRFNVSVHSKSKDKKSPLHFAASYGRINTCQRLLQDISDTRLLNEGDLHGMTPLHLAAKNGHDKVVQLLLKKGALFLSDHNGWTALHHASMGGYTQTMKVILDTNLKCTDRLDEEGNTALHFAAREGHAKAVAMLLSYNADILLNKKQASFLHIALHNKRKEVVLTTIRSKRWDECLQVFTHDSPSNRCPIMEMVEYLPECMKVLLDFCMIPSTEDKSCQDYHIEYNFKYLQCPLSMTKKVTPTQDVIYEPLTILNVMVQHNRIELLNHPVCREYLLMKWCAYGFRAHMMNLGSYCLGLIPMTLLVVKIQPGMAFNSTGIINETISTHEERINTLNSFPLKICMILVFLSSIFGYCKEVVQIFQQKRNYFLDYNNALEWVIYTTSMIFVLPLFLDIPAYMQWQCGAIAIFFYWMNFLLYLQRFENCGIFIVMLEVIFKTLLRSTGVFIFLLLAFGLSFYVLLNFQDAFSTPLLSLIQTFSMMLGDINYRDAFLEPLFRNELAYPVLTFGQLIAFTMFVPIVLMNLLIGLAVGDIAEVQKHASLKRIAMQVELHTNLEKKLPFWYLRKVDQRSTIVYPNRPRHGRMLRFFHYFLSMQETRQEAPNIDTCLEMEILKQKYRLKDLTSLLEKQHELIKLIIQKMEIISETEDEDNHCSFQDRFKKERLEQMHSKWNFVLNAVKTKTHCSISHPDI
Sequence of Transient receptor potential cation channel subfamily A member 1 (Q6RI86 whole entry): as above
Sequence of Transient receptor potential cation channel subfamily M member 8 (Q8R455 whole entry): as the sequence (Q8R455 whole entry, looked up) above

What is called inhibition is the percentage by which the read-out fell short of the control. For the compound `C=C(C)C1CC=C(C=O)CC1` (stereo not given) [PERILLALDEHYDE], in assay [1], the inhibition was 64.3%. In assay [2], the outcome was inactive. Besides, the result in assay [3] was Active. For the same compound, the EC50 in assay [4] (read-out: EC50) is 41 µM; in assay [4] (read-out: pEC50 (converted)) it was 19.5 µM. The Efficacy in assay [5] is 74.6%.
Take `O=C1NC(c2cccc([N+](=O)[O-])c2)=CCN1c1ccccc1O` [ICILLIN]: the Activity entry in assay [6] was “Dose-dependent effect”. In addition, the EC50 in assay [7] came to 0.19 µM.
Regarding `CC(C)CCC(=O)c1ccoc1` [PERILLAKETONE], the inhibition in assay [1] worked out at 39.3%. Also, the result in assay [2] was inactive. For the same compound, the result in assay [3] and in assay [8] was Active. Also, the EC50 in assay [4] (read-out: EC50) is 19.7 µM; in assay [4] (read-out: pEC50 (converted)), 40.7 µM. Moreover, in assay [5], the Efficacy worked out at 181%.
